# Measurements as given in ChEMBL document CHEMBL4311991, “Design, synthesis, and biological evaluation of 1-substituted -2-aryl imidazoles targeting tubulin polymerization as potential anticancer agents” (Eur J Med Chem, 2019).
# Activity calls are given as the source filed them. The calls are words filed in the database; no cut-off is given here.
# How the values were obtained:
# T47D = experiment: Antiproliferative activity against human T47D cells assessed as reduction in cell viability after 72 hrs by MTT assay; type: functional, cell-based
# MDA-MB-231 = experiment: Antiproliferative activity against human MDA-MB-231 cells assessed as reduction in cell viability after 72 hrs by MTT assay; type: functional, cell-based; conditions: MDA-MB-231, 72 h
# MDA-MB-468 [1] = experiment: Induction of apoptosis in human MDA-MB-468 cells assessed as late apoptotic cells at 100 nM after 48 hrs by Annexin-FITC/propidium iodide staining based flow cytometry (reference value: 1.03 to 1.59%); type: functional
# HeLa = experiment: Antiproliferative activity against human HeLa cells assessed as reduction in cell viability after 72 hrs by MTT assay; type: functional, cell-based
# MDA-MB-468 [2] = experiment: Induction of apoptosis in human MDA-MB-468 cells assessed as late apoptotic cells at 100 nM after 24 hrs by Annexin-FITC/propidium iodide staining based flow cytometry (reference value: 1.03 to 1.59%); type: functional
# MDA-MB-468 [3] = experiment: Induction of cell cycle arrest in human MDA-MB-468 cells assessed as accumulation of cells at G2/M phase at IC50 concentration by propidium iodide staining-based flow cytometric analysis; type: functional; conditions: TDE = time-dependent effect
# [4] = Retention time of the compound using acetonitrile:water at ratio of 50:50 as mobile phase by reverse-phase HPLC analysis; type: physicochemical; conditions: buffer
# Mus musculus [5] = species on record: Mus musculus; experiment: Inhibition of tubulin polymerization in mouse B16F10 cells assessed as disruption of microtubule network at 200 nM incubated for 6 hrs by DAPI staining based confocal microscopy; type: cell-based
# HUVEC = experiment: Cytotoxicity against HUVEC assessed as reduction in cell viability after 72 hrs by MTT assay; type: cell-based; conditions: Homo sapiens
# MDA-MB-468 [6] = experiment: Induction of apoptosis in human MDA-MB-468 cells assessed as early apoptotic cells at 100 nM after 48 hrs by Annexin-FITC/propidium iodide staining based flow cytometry (reference value: 0.35 to 1.25%); type: functional
# MDA-MB-468 [7] = experiment: Induction of apoptosis in human MDA-MB-468 cells assessed as viable cells at 100 nM after 72 hrs by Annexin-FITC/propidium iodide staining based flow cytometry (reference value: 96.8%); type: functional; conditions: MDA-MB-468, 72 h, read-out: Activity
# MDA-MB-468 [8] = experiment: Induction of apoptosis in human MDA-MB-468 cells assessed as early apoptotic cells at 100 nM after 24 hrs by Annexin-FITC/propidium iodide staining based flow cytometry (reference value: 0.35 to 1.25%); type: functional
# MDA-MB-468 [9] = experiment: Induction of apoptosis in human MDA-MB-468 cells assessed as necrotic cells at 100 nM after 24 hrs by Annexin-FITC/propidium iodide staining based flow cytometry (reference value: 0.97 to 1.29%); type: functional
# MDA-MB-468 [10] = experiment: Induction of apoptosis in human MDA-MB-468 cells assessed as late apoptotic cells at 100 nM after 72 hrs by Annexin-FITC/propidium iodide staining based flow cytometry (reference value: 1.03 to 1.59%); type: functional
# MDA-MB-468 [11] = experiment: Induction of apoptosis in human MDA-MB-468 cells assessed as viable cells at 100 nM after 24 hrs by Annexin-FITC/propidium iodide staining based flow cytometry (reference value: 96.8%); type: functional; conditions: MDA-MB-468, 24 h, read-out: Activity
# MDA-MB-468 [12] = experiment: Induction of apoptosis in human MDA-MB-468 cells assessed as necrotic cells at 100 nM after 72 hrs by Annexin-FITC/propidium iodide staining based flow cytometry (reference value: 0.97 to 1.29%); type: functional
# MDA-MB-468 [13] = experiment: Antiproliferative activity against human MDA-MB-468 cells assessed as reduction in cell viability after 72 hrs by MTT assay; type: functional, cell-based; conditions: MDA-MB-468, 72 h
# HCT-15 = experiment: Antiproliferative activity against human HCT15 cells assessed as reduction in cell viability after 72 hrs by MTT assay; type: functional, cell-based; conditions: HCT-15, 72 h
# MDA-MB-468 [14] = experiment: Induction of apoptosis in human MDA-MB-468 cells assessed as viable cells at 100 nM after 48 hrs by Annexin-FITC/propidium iodide staining based flow cytometry (reference value: 96.8%); type: functional; conditions: MDA-MB-468, 48 h, read-out: Activity
# HT-29 = experiment: Antiproliferative activity against human HT-29 cells assessed as reduction in cell viability after 72 hrs by MTT assay; type: functional, cell-based; conditions: HT-29, 72 h
# MDA-MB-468 [15] = experiment: Induction of apoptosis in human MDA-MB-468 cells assessed as early apoptotic cells at 100 nM after 72 hrs by Annexin-FITC/propidium iodide staining based flow cytometry (reference value: 0.35 to 1.25%); type: functional
# MDA-MB-468 [16] = experiment: Antitumor activity against human MDA-MB-468 cells xenografted in nude mouse assessed as tumour growth inhibition at 60 mg/kg, ip administered every other day for 21 days relative to control; type: functional; conditions: MDA-MB-468, ip, 504 h, read-out: TGI
# MDA-MB-468 [17] = experiment: Induction of apoptosis in human MDA-MB-468 cells assessed as necrotic cells at 100 nM after 48 hrs by Annexin-FITC/propidium iodide staining based flow cytometry (reference value: 0.97 to 1.29%); type: functional
# [18] = Aqueous solubility of the compound at 1 mg/ml after 24 hrs by shake flask method based HPLC analysis; type: physicochemical
# [19] = Ratio of compound aqueous solubility to CA-4 aqueous solubility at 1 mg/ml after 24 hrs by shake flask method based HPLC analysis; type: physicochemical; conditions: buffer
# Tubulin (Sus scrofa) [20] = target: T1, Tubulin (Sus scrofa) (UniProt P02554+P02550); experiment: (§1) Inhibition of pig brain tubulin polymerization in presence of GTP by spectrophotometric analysis
# T1 sequence (P02550 whole entry, looked up): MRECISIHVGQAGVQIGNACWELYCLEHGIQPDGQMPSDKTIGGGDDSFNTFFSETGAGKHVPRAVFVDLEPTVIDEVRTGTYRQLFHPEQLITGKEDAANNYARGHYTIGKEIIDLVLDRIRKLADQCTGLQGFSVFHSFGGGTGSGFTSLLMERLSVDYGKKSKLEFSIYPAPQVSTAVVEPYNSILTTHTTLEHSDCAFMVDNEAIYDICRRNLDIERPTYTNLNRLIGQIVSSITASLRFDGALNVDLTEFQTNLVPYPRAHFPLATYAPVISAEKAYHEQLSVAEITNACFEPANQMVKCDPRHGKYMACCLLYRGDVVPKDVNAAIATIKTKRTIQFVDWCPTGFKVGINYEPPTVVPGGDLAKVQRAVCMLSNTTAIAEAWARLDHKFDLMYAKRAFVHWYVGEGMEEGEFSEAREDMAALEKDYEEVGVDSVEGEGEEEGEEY
# T1 sequence (P02554 whole entry, looked up): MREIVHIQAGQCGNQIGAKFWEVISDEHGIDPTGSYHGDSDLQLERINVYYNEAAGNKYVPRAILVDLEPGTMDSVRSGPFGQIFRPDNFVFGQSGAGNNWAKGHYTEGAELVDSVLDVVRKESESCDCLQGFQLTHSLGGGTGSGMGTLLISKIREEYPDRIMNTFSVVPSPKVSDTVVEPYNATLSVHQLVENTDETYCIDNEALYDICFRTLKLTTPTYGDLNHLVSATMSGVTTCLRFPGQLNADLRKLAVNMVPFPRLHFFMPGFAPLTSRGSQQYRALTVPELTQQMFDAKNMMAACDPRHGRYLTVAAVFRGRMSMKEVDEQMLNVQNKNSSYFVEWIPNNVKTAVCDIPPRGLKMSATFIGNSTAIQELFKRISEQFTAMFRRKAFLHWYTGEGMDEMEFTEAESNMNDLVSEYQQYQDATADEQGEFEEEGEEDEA
# Tubulin = Tubulin (Sus scrofa, UniProt P02554+P02550); experiment: as §1
# [21] = 1-Octanol/water partition coefficient, log P of compound at 1 mg after 1 hr by HPLC analysis; type: physicochemical
# Tubulin (Sus scrofa) [22] = target: T1, Tubulin (Sus scrofa); experiment: Inhibition of pig brain tubulin polymerization at 3 to 6 uM in presence of GTP by spectrophotometric analysis relative to control
# Mus musculus [23] = species on record: Mus musculus; experiment: Inhibition of tubulin polymerization in mouse B16F10 cells assessed as disruption of microtubule network at 400 nM incubated for 6 hrs by DAPI staining based confocal microscopy; type: cell-based
# [24] = Toxicity in nude mouse xenografted with human MDA-MB-468 cells assessed as effect on body weight at 30 to 60 mg/kg, ip administered every other day for 21 days; type: organism-based; conditions: in vivo, 504 h
# MDA-MB-468 [25] = experiment: Antitumor activity against human MDA-MB-468 cells xenografted in nude mouse assessed as tumour growth inhibition at 30 mg/kg, ip administered every other day for 21 days relative to control; type: functional; conditions: MDA-MB-468, ip, 504 h, read-out: TGI
Structure (SMILES),IC50 (T47D) [nM],IC50 (MDA-MB-231) [nM],Activity (MDA-MB-468 [1]) [%],IC50 (HeLa) [nM],Activity (MDA-MB-468 [2]) [%],Activity (MDA-MB-468 [3]),Retention_time [4] [min],IC50 (HUVEC) [nM],Activity (MDA-MB-468 [6]) [%],viability at 0.1 µM (MDA-MB-468 [7]) [%],Activity (MDA-MB-468 [8]) [%],Activity (MDA-MB-468 [9]) [%],Activity (MDA-MB-468 [10]) [%],viability at 0.1 µM (MDA-MB-468 [11]) [%],Activity (MDA-MB-468 [12]) [%],IC50 (MDA-MB-468 [13]) [nM],IC50 (HCT-15) [nM],viability at 0.1 µM (MDA-MB-468 [14]) [%],IC50 (HT-29) [nM],Activity (MDA-MB-468 [15]) [%],further results
COc1ccc(/C=C\c2cc(OC)c(OC)c(OC)c2)cc1O [COMBRETASTATIN A4],14.6,13.5,31.9,9.2,15.7,Tde,12.5,> 100000,0.84,33.4,1.44,3.67,55.3,79.2,9.4,6.5,3.2,60,30.5,1.84,inhibition (Mus musculus [5]): Active; inhibition in vivo at 60 mg/kg (MDA-MB-468 [16]): 87.5%; Activity (MDA-MB-468 [17]): 7.2%
COc1ccc(-n2ccnc2-c2cc(OC)c(OC)c(OC)c2)cc1N,500,1040,15,80,3.56,Tde,5,58500,1.18,72.3,0.38,1.51,22.9,94.5,3.27,90,100,79.6,200,1.53,solubility thermodynamic at 24 h [18]: 36.7 µg/mL; Ratio [19]: 13; inhibition (Tubulin (Sus scrofa) [20]): Dose-dependent effect; IC50 (Tubulin): 400 nM; logP at 1 h [21]: 1.77; inhibition (Tubulin (Sus scrofa) [22]): 100%; inhibition (Mus musculus [23]): Active; Activity [24]: Non-Toxic; inhibition in vivo at 30 mg/kg (MDA-MB-468 [25]): 48%; inhibition in vivo at 60 mg/kg (MDA-MB-468 [16]): 77%; Activity (MDA-MB-468 [17]): 4.19%
